According to article PMC6886798, “Expression of myeloid Src-family kinases is associated with poor prognosis in AML and influences Flt3-ITD kinase inhibitor acquired resistance” (PLoS ONE, 2019):
Like-named read-outs stand apart in the source and are kept apart here.

Tests used:
Hck T338F = target: T1, Hck T338F (Homo sapiens, UniProt P08631, T333F); assay: Z'-LYTE in vitro kinase assay; format: biochemical
T1 construct: Recombinant near-full-length kinases, consisting of the SH2, SH3 and kinase domains plus the negative regulatory tail; made in house; host or cells: E. coli BL21Star (DE3), co-expressed with Csk and PTP1B

Fgr T338F = target: T2, Fgr T338F (Homo sapiens, UniProt P09769, T334F); assay: Z'-LYTE in vitro kinase assay; format: biochemical
T2 construct: Recombinant near-full-length kinases, consisting of the SH2, SH3 and kinase domains plus the negative regulatory tail; made in house; host or cells: E. coli BL21Star (DE3), co-expressed with Csk and PTP1B
Procedure: (§4) Assays were performed in quadruplicate in 384-well low volume, non-binding, black polystyrene microplates (Corning) according to the manufacturer’s instructions. Briefly, this assay measures phosphorylation of the Tyr2 peptide substrate which is tagged with coumarin and fluorescein on its N- and C-termini, respectively, to form a FRET pair. After the kinase reaction, a development step involves site-specific proteolytic cleavage of the unphosphorylated but not the phosphorylated peptide. […] Kinase reactions were run in 50 mM HEPES, pH 7.5, 10 mM MgCl2, 1 mM EGTA, and 0.01% BRIJ-35 (buffer supplied by the manufacturer). […] Following incubation for 1 h at ambient temperature, reactions were quenched by addition of the development protease, and coumarin and fluorescein fluorescence were measured 1 h later on a Molecular Devices SpectraMax M5 plate reader. […] For experiments with inhibitors, compounds were preincubated with kinase for 30 min prior to initiation of the reaction by the addition of ATP.

Lyn T338L = target: T3, Lyn T338L (Homo sapiens, UniProt P07948, T319L); assay: Z'-LYTE in vitro kinase assay; format: biochemical; details: read-out: A-419259 IC50, Fig 5B, ATP at Km, mean ± SE, three independent determinations
T3 construct: Recombinant near-full-length kinases, consisting of the SH2, SH3 and kinase domains plus the negative regulatory tail; made in house; host or cells: E. coli BL21Star (DE3), co-expressed with Csk and PTP1B

Lyn T338F = target: T4, Lyn T338F (Homo sapiens, UniProt P07948, T319F); assay: Z'-LYTE in vitro kinase assay; format: biochemical; details: read-out: A-419259 IC50, Fig 5B, ATP at Km, mean ± SE, three independent determinations
T4 construct: Recombinant near-full-length kinases, consisting of the SH2, SH3 and kinase domains plus the negative regulatory tail; made in house; host or cells: E. coli BL21Star (DE3), co-expressed with Csk and PTP1B

Flt3-D835Y kinase domain = target: T5, Flt3-D835Y kinase domain (Homo sapiens, UniProt P36888, D835Y); assay: Z'-LYTE in vitro kinase assay; format: biochemical; details: Flt3 D835Y mutant
T5 construct: Recombinant purified Flt3 wild-type, Flt3-ITD and Flt3-D835Y kinase domains were purchased from ThermoFisher; purchased ThermoFisher
Procedure: as §4

[1] = test system: parental TF-1 cells (GM-CSF); assay: CellTiter-Blue cell viability; format: cell-based, human; details: at 3.0 μM; 72 hours; in the presence of GM-CSF
Procedure: TF-1 and MV4-11 cells were obtained from the American Type Culture Collection (ATCC) and cultured in RPMI 1640 medium supplemented with 10% fetal bovine serum (FBS), 100 units/ml of penicillin, 100 μg/ml of streptomycin sulfate, and 0.25 μg/ml of amphotericin B (Antibiotic-Antimycotic; Gibco/ThermoFisher). Parental TF-1 cells also require recombinant human GM-CSF (1 ng/mL; ThermoFisher). MOLM13 and MOLM14 cells were obtained from Leibniz Institute Deutsche Sammlung von Mikroorganismen (DSMZ) and grown in RPMI 1640 medium containing 20% FBS and Antibiotic-Antimycotic. Human 293T cells were obtained from ATCC and cultured in Dulbecco's modified Eagle's medium (DMEM) containing 10% FBS and Antibiotic-Antimycotic.
Cells were seeded at 10^5 per mL in the presence or absence of inhibitors with DMSO as carrier solvent (0.1% final). Cell viability was assessed using the CellTiter-Blue reagent according to the manufacturer’s instructions (Promega). Fluorescence intensity, which correlates directly with viable cell number, was measured using a SpectraMax M5 microplate reader. Each experiment included three technical replicates per condition, and each experiment was repeated at least three times.

MOLM13 cells (parent) = assay: CellTiter-Blue cell viability; format: cell-based, human
Procedure: (§1) Gibco/ThermoFisher). Parental TF-1 cells also require recombinant human GM-CSF (1 ng/mL; ThermoFisher). MOLM13 and MOLM14 cells were obtained from Leibniz Institute Deutsche Sammlung von Mikroorganismen (DSMZ) and grown in RPMI 1640 medium containing 20% FBS and Antibiotic-Antimycotic. […] Cell viability was assessed using the CellTiter-Blue reagent according to the manufacturer’s instructions (Promega). Fluorescence intensity, which correlates directly with viable cell number, was measured using a SpectraMax M5 microplate reader. Each experiment included three technical replicates per condition, and each experiment was repeated at least three times.

MOLM14 cells (parent) = assay: CellTiter-Blue cell viability; format: cell-based, human
Procedure: as §1

MV4-11 cells (parent) = assay: CellTiter-Blue cell viability; format: cell-based, human
Procedure: as §1

[2] = test system: MOLM13 R3 (A-419259-resistant population); assay: CellTiter-Blue cell viability; format: cell-based, human
Procedure: (§2) Cell viability was assessed using the CellTiter-Blue reagent according to the manufacturer’s instructions (Promega). Fluorescence intensity, which correlates directly with viable cell number, was measured using a SpectraMax M5 microplate reader. Each experiment included three technical replicates per condition, and each experiment was repeated at least three times. […] Viability of each cell population was measured three times per week using the CellTiter-Blue assay.

[3] = test system: MOLM14 R1 (A-419259-resistant population); assay: CellTiter-Blue cell viability; format: cell-based, human
Procedure: as §2

[4] = test system: MOLM14 R2 (A-419259-resistant population); assay: CellTiter-Blue cell viability; format: cell-based, human
Procedure: as §2

[5] = test system: MOLM14 R3 (A-419259-resistant population); assay: CellTiter-Blue cell viability; format: cell-based, human
Procedure: as §2

[6] = test system: MV4-11 R2 (A-419259-resistant population); assay: CellTiter-Blue cell viability; format: cell-based, human
Procedure: as §2

[7] = test system: MV4-11 R3 (A-419259-resistant population); assay: CellTiter-Blue cell viability; format: cell-based, human
Procedure: as §2

CDC2L5 = CDC2L5 (Homo sapiens, UniProt Q14004); details: 1.0 µM
Procedure: (§3) Kinase retention to the immobilized ligand is then measured using quantitative real-time PCR for each kinase-specific DNA barcode.

PKNB(M.tuberculosis) = PKNB(M.tuberculosis) (Mycobacterium tuberculosis, UniProt P9WI81); details: 1.0 µM
Procedure: as §3

EGFR(L747-T751del,Sins) = assay: KINOMEscan; format: binding, human; details: 1.0 µM
Procedure: as §3

FLT3(ITD,D835V) = assay: KINOMEscan; format: binding, human; details: 1.0 µM
Procedure: as §3

HCK = target: T6, HCK (Homo sapiens, UniProt P08631); assay: KINOMEscan; format: binding; details: 1.0 µM
T6 construct: purchased Eurofins/DiscoverX KINOMEscan scanMAX

LYN = target: T7, LYN (Homo sapiens, UniProt P07948); assay: KINOMEscan; format: binding; details: 1.0 µM
T7 construct: purchased Eurofins/DiscoverX KINOMEscan scanMAX

[8] = read-out: A-419259 Sensitivity (IC50, nM) Initial, mean ± SE (n = 3)
[9] = read-out: A-419259 Sensitivity (IC50, nM) Post-holiday, after 4 weeks passage in the absence of inhibitor, mean ± SE (n = 3)

T1 sequence (P08631 78-526 T333F limits assumed): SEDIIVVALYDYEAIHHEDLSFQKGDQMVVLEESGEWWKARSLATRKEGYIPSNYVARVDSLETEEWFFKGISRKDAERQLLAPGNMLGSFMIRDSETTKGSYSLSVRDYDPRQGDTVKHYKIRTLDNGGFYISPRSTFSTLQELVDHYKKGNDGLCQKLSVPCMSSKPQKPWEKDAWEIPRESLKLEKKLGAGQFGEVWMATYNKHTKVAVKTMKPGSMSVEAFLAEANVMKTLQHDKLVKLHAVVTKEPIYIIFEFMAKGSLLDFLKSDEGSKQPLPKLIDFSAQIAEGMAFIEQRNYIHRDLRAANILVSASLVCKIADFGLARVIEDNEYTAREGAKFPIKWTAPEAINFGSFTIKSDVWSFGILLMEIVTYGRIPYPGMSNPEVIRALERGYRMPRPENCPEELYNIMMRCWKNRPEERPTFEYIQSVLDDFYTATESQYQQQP
T3 sequence (P07948 63-512 T319L limits assumed): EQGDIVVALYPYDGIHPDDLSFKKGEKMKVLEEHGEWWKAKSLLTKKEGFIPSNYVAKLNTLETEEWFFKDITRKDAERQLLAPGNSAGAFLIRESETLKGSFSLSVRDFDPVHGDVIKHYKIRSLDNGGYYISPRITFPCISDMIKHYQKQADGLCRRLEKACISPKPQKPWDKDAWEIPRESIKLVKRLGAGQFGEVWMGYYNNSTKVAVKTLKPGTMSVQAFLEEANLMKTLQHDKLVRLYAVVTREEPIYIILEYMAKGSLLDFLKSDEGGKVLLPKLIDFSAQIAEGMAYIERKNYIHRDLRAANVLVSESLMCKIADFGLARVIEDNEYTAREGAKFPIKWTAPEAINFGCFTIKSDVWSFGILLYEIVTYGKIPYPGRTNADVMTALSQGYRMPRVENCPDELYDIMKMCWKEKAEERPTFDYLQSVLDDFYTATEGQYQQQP
Chain of PKNB(M.tuberculosis) (P9WI81 whole entry): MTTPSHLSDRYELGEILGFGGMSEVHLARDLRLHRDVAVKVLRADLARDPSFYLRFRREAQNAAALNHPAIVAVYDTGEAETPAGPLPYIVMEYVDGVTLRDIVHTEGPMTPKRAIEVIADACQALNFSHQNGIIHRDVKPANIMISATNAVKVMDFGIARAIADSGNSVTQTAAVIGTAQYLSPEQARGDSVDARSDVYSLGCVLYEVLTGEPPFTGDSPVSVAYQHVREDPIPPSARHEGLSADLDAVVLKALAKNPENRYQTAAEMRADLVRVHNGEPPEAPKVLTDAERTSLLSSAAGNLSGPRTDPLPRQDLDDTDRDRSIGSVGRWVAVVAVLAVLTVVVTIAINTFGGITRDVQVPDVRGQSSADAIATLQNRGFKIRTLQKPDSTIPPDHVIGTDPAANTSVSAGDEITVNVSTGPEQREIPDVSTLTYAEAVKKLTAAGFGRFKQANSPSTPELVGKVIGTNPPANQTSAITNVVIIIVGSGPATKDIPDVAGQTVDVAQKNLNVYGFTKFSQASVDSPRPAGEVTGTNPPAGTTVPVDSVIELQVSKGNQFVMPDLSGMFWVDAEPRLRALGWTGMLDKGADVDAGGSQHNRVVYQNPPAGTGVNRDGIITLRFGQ
T7 sequence (P07948 whole entry): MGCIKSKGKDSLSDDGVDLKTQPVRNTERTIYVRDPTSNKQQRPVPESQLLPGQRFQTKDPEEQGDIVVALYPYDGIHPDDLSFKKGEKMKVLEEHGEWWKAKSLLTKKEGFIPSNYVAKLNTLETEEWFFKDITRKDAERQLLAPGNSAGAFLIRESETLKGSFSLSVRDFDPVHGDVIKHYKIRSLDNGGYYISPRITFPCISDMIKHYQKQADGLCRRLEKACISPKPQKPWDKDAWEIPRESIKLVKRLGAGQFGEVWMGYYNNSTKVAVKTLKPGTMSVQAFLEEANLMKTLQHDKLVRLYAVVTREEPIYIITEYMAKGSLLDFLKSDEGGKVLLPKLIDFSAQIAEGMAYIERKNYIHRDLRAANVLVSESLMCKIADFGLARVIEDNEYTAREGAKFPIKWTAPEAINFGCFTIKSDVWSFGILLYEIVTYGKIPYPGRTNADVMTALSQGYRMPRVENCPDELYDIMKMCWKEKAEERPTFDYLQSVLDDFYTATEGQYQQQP
T6 sequence (P08631 whole entry): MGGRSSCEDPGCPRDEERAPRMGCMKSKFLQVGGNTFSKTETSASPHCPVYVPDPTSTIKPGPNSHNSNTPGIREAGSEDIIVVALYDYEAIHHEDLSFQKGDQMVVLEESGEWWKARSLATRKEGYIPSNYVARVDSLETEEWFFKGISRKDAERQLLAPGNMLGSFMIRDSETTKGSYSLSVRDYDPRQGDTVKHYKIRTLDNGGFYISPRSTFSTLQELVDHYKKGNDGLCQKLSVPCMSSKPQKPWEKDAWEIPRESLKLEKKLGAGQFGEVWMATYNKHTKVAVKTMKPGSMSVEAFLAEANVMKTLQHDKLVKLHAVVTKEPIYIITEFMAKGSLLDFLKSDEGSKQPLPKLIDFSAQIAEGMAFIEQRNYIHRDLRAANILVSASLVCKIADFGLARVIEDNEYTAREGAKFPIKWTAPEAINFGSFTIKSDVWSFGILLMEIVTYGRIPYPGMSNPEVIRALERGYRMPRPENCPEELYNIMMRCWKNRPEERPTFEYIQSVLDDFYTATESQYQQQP
T4 sequence (P07948 63-512 T319F limits assumed): as the sequence (P07948 63-512 T319L limits assumed) above, with L257F counted along it
Chain of CDC2L5 (Q14004 whole entry): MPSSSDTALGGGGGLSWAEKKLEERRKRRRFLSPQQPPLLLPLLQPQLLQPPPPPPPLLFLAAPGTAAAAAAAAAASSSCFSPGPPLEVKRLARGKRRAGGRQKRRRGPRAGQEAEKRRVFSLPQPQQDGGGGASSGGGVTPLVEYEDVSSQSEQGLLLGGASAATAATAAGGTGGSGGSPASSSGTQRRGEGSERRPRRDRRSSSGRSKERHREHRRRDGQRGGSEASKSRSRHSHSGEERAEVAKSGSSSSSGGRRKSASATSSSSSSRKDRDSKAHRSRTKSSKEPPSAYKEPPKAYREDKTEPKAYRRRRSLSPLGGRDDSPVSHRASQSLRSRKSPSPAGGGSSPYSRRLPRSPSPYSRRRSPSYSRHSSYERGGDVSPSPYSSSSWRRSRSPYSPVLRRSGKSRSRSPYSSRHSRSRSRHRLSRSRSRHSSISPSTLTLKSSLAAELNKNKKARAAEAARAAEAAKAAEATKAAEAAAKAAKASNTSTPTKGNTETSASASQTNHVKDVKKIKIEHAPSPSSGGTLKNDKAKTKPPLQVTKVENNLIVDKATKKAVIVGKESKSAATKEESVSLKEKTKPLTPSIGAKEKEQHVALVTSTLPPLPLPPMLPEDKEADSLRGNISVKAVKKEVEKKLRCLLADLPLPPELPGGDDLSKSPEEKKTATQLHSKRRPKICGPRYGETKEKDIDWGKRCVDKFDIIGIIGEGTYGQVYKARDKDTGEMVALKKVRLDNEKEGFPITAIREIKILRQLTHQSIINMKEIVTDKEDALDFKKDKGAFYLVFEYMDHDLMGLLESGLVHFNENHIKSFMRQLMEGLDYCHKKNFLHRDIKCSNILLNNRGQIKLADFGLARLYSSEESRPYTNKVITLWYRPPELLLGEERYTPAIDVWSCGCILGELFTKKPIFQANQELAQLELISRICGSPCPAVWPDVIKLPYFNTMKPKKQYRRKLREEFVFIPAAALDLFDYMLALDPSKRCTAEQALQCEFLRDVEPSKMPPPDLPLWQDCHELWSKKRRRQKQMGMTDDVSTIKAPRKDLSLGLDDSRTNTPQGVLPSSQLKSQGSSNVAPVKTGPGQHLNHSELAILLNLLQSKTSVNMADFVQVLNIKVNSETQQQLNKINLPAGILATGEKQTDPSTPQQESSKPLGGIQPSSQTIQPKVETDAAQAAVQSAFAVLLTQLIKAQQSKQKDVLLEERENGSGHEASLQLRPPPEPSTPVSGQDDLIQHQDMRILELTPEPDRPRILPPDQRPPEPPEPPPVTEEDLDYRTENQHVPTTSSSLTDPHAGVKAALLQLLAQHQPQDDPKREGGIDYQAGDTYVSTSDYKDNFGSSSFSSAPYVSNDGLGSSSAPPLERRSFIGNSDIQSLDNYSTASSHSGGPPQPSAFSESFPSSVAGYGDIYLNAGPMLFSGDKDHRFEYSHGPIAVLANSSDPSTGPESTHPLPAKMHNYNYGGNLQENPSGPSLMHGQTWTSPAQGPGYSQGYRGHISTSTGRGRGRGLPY

CN1CCN(C2CCC(n3cc(-c4ccc(Oc5ccccc5)cc4)c4c(N)ncnc43)CC2)CC1 (stereo not drawn) [A-419259]
reduction of kinase sensitivity to A-419259 (Hck T338F; Hck gatekeeper threonine to phenylalanine, vs wild-type): ~5 fold
IC50 (Hck T338F; read-out: A-419259 IC50, Fig 5B, Hck T338F, ATP at Km, mean ± SE, three independent determinations): 201 ± 1 nM
resistance to A-419259 (Fgr T338F; Fgr gatekeeper phenylalanine substitution, vs wild-type): ~5 fold
IC50 (Fgr T338F; read-out: A-419259 IC50, Fig 5B, Fgr T338F, ATP at Km, mean ± SE, three independent determinations): 282.9 ± 1.1 nM
IC50 (Lyn T338L): 129.7 ± 1.1 nM
IC50 (Lyn T338F): 242 ± 1.2 nM
resistance to A-419259 in in vitro kinase assays (Flt3-D835Y kinase domain): about 6 fold
growth inhibition [1]: less than 20%
IC50 (MOLM13 cells (parent); [8]): 40.3 ± 9.9 nM
IC50 (MOLM13 cells (parent); [9]): 38.4 ± 0.9 nM
IC50 (MOLM14 cells (parent); [8]): 14.3 ± 1.5 nM
IC50 (MOLM14 cells (parent); [9]): 26.4 ± 7.7 nM
IC50 (MV4-11 cells (parent); Fig 3A, 72 hours, read-out: IC50 (cell viability)): 58 nM
IC50 (MV4-11 cells (parent); read-out: A-419259 Sensitivity (IC50, nM) Initial, MV4-11 Parent, mean ± SE (n = 3)): 28.3 ± 3.5 nM
IC50 (MV4-11 cells (parent); read-out: A-419259 Sensitivity (IC50, nM) Post-holiday, MV4-11 Parent, after 4 weeks passage in the absence of inhibitor, mean ± SE (n = 3)): 27.5 ± 4.3 nM
IC50 [2, 8]: 473 ± 53.9 nM
IC50 [2, 9]: 436 ± 107 nM
IC50 [3, 8]: 187 ± 20.8 nM
IC50 [3, 9]: 283 ± 84.2 nM
IC50 [4, 8]: 193 ± 51.4 nM
IC50 [4, 9]: 326 ± 38.4 nM
IC50 [5, 8]: 213 ± 73.7 nM
IC50 [5, 9]: 178 ± 46.1 nM
IC50 [6, 8]: 410 ± 136 nM
IC50 [6, 9]: 597 ± 76.3 nM
IC50 [7, 8]: 125 ± 7.3 nM
IC50 [7, 9]: 91.6 ± 15.6 nM
% Control (CDC2L5): 77%
% Control (PKNB(M.tuberculosis)): 82%
% Control (EGFR(L747-T751del,Sins)): 16%
% Control (FLT3(ITD,D835V)): 30%
% Control (HCK): 1.9%
% Control (LYN): 1.7%
